Counter-ions that a name gives are not always drawn. Like-named read-outs stand apart in the source and are kept apart here.

Data set [1] has as its system Staphulococcus aureus (ATCC 29213). Description: Minimum inhibitory concentration (MIC) assay, Example 33. The following applies: Staphylococcus aureus. In kind it is cell-based, Staphylococcus aureus. The method in brief:
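Broth microdilution MIC per CLSI guidelines, in CAMHB with serial 2-fold compound dilutions. Bacterial inocula were adjusted to a 0.5 McFarland standard, then diluted 1:100 and 1:2 in the wells. Plates were incubated at 35 °C, and the MIC was read according to CLSI.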

The next data set in a line: pH (Table 1). In kind it is physicochemical.
Data set [2] has as its system Proteus mirabilis (ATCC 7002). The experiment in a line: MIC assay with different strains, Example 35. The class given is cell-based. The procedure: (§1) The minimum inhibitory concentration (MIC) is used to determine the lowest concentration of a test product claiming antimicrobial effects that will inhibit growth of a microorganism. Each microbial suspension was adjusted approximately 10^7 to 10^8 colony forming units (CFU) per mL and labeled as the stock suspension. The stock suspension was further diluted to 1:200 in Mueller Hinton broth to obtain a test sample having a concentration of […]. The test sample was then tested for MIC as described in M202.R02. After incubation, each tube was examined for turbidity, which indicated growth or no growth. For the tubes where the product rendered the media turbid, an aliquot of the media was streaked onto agar plates to confirm growth or lack of growth.

The test system of data set [3] is Staphylococcus hominis (ATCC 27844). The experiment in a line: MIC assay with different strains, Example 35. In kind it is cell-based. On the procedure: as §1
Data set [4] relates to Bacillus subtilis (ATCC 6633). The experiment in a line: MIC assay with different strains, Example 35. The class given is cell-based. The procedure: as §1
For data set [5], the system named is Serratia marcescens (ATCC 14756). The experiment in a line: MIC assay with different strains, Example 35. In kind it is cell-based. The procedure:
as §1

The subject of data set [6] is Klebsiella oxytoca (ATCC 43165). The experiment in a line: MIC assay with different strains, Example 35. The class given is cell-based. On the procedure: as §1
In data set [7] the test system is Aspergillus niger (CMCC 98003). The experiment in a line: Time kill study, Example 33 (0 to 5 min). The class given is cell-based. The conditions noted are these: 1×MIC. On the procedure:
Thirty compounds were tested for antimicrobial activity using standard procedures and standard strains for both the minimum inhibitory concentration (MIC) assay and a time kill study. Both the MIC assay and the time kill study were performed according to Clinical and Laboratory Standards Institute (CLSI) guidelines. Three bacteria strains, Escherichia coli (ATCC 25922), Pseudomonas aeruginosa (ATCC 27853), Staphulococcus aureus (ATCC 29213), and two fungus strains, Candida albicans (ATCC 90029) and Aspergillus niger (CMCC 98003), were used in the experiments.
The viable counts in Log10 CFU/mL at each time point were recorded.
Time kill studies. Strain suspensions were prepared as described above for the MIC test, and strain suspensions and compound solutions were mixed in the same volume. Samples were removed at specified times including 0 min, 30 sec, 1 min and 5 mins, were diluted in the test medium and streaked on agar. Colonies were counted after 24 to 48 hrs of incubation.
The MIC values for thirty compounds against Escherichia coli, Pseudomonas aeruginosa, Staphulococcus aureus, Candida albicans, and Aspergillus niger were recorded and are presented in Table 3 and Table 4.

For data set [8], the system named is Aspergillus niger (CMCC 98003). The experiment in a line: Minimum inhibitory concentration (MIC) assay, Example 33. The class given is cell-based. The following applies: Aspergillus niger. The method in brief:
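Broth microdilution MIC per CLSI guidelines in RPMI 1640 with serial 2-fold compound dilutions. Spore suspension from sporulating colonies adjusted to OD530 0.09-0.13, diluted 1:50 as 2× inoculum and added 1:2 to drug wells; plates incubated at 35 °C and MIC read per CLSI.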

Where [9] appears, read: ATCC29213, Table 19 summary, read-out: MIC.
Setting [10] is: ATCC29213, n = 1, read-out: MIC S. aureus.
Setting [11] is: ATCC29213, n = 2, read-out: MIC S. aureus.
[12] abbreviates: CMCC98003, Table 19 summary, read-out: MIC.
[13] abbreviates: CMCC98003, n = 1, read-out: MIC Aspergillus niger.
Where [14] appears, read: CMCC98003, n = 2, read-out: MIC Aspergillus niger.

`CCCCCCCCCCCCOC(=O)C(C)N(C)C` (stereo not drawn) [Nex-05, Dodecyl 2-(dimethylamino)propanoate hydrochloride]: the MIC in data set [1] (ATCC29213, read-out: MIC S. aureus, n = 1) came to 3130 µg/mL; in [2] (Example 35) it was 1.25%; in data set [3] (Example 35) it was 0.625%; in data set [4] (Example 35) it was 0.313%; in [5] (Example 35), 2.5%; in data set [6] (Example 35), 1.25%. In “pH (Table 1)” (hydrochloride), the pH was determined as 2.87. In addition, the Growth/no growth result in [2] (Sample Concentration 0.039%), in [2] (Sample Concentration 0.078%), in data set [2] (Sample Concentration 0.156%), in data set [2] (Sample Concentration 0.313%), in data set [2] (Sample Concentration 0.625%) and in data set [3] (Sample Concentration 0.039%) was “Growth” in each case. The Growth/no growth entry in [3] (Sample Concentration 0.078%), in [3] (Sample Concentration 0.156%), in [3] (Sample Concentration 0.313%), in [4] (Sample Concentration 0.039%), in [4] (Sample Concentration 0.078%) and in data set [4] (Sample Concentration 0.156%) was “Growth” in each case. The Growth/no growth result in [5] (Sample Concentration 0.039%), in data set [5] (Sample Concentration 0.078%), in data set [5] (Sample Concentration 0.156%), in data set [5] (Sample Concentration 0.313%), in data set [5] (Sample Concentration 0.625%) and in [5] (Sample Concentration 1.25%) was “Growth” in each case. In addition, the Growth/no growth entry in data set [6] (Sample Concentration 0.039%), in [6] (Sample Concentration 0.078%), in [6] (Sample Concentration 0.156%), in data set [6] (Sample Concentration 0.313%) and in data set [6] (Sample Concentration 0.625%) was “Growth” in each case.

For `CCCCCCCCCCCCOC(=O)C(C)NC.Cl` (stereo not drawn) [Nex-59, Dodecyl 2-(methylamino)propanoate hydrochloride], the MIC in data set [1] (setting [9]), in [1] (setting [10]), in data set [1] (setting [11]), in data set [8] (setting [12]), in data set [8] (setting [13]) and in data set [8] (setting [14]) was 50 µg/mL in each case. Also, the MIC worked out at 0.32% in data set [2] (Example 35); 3200 µg/mL in data set [2] (Proteus mirabilis, ATCC7002, Table 19 summary, read-out: MIC); 0.02% in data set [3] (Example 35); 200 µg/mL in data set [3] (Staphylococcus hominis, ATCC27844, Table 19 summary, read-out: MIC); 400 µg/mL in [4] (Bacillus subtilis, ATCC6633, Table 19 summary, read-out: MIC); 0.04% in data set [4] (Example 35). For the same molecule, the MIC is more than 2.5% in data set [5] (Example 35); more than 25000 µg/mL in [5] (Serratia marcescens, ATCC14756, Table 19 summary, read-out: MIC); 0.63% in data set [6] (Example 35); 6300 µg/mL in data set [6] (Klebsiella oxytoca, ATCC 43165 / ATCC 43615, Table 19 summary, strain printed ATCC 43615, read-out: MIC). Moreover, the “Viable counts, Aspergillus niger time kill study” value (“Viable counts” for short) in data set [7] (0.5 min) is given as 5.30 Log10 CFU/mL; in data set [7] (1 min) it was 5.33 Log10 CFU/mL; in data set [7] (5 min), 5.18 Log10 CFU/mL; in [7] (time 0) it was 5.27 Log10 CFU/mL. Moreover, the pH in “pH (Table 1)” came out at 2.17. In addition, the Growth/no growth entry in [2] (Sample Concentration 0.01%), in data set [2] (Sample Concentration 0.02%), in data set [2] (Sample Concentration 0.04%), in [2] (Sample Concentration 0.08%), in data set [2] (Sample Concentration 0.16%) and in [3] (Sample Concentration 0.01%) was “Growth” throughout. Further, the Growth/no growth result in data set [3] (Sample Concentration 0.02%), in data set [3] (Sample Concentration 0.04%), in data set [3] (Sample Concentration 0.08%), in data set [3] (Sample Concentration 0.16%), in data set [3] (Sample Concentration 0.32%) and in data set [3] (Sample Concentration 0.63%) was “No” throughout. For the same molecule, the Growth/no growth result in data set [3] (Sample Concentration 1.25%) is recorded as “No”; in data set [3] (Sample Concentration 2.5%), “No”; in data set [4] (Sample Concentration 0.01%), “Growth”; in data set [4] (Sample Concentration 0.02%), “Growth”; in data set [5] (Sample Concentration 0.01%), “Growth”; in data set [5] (Sample Concentration 0.02%), “Growth”. For the same molecule, the Growth/no growth result in [5] (Sample Concentration 0.04%), in data set [5] (Sample Concentration 0.08%), in [5] (Sample Concentration 0.16%), in data set [5] (Sample Concentration 0.32%), in data set [5] (Sample Concentration 0.63%) and in data set [5] (Sample Concentration 1.25%) was “Growth” each time. In addition, the Growth/no growth result in [5] (Sample Concentration 2.5%), in data set [6] (Sample Concentration 0.01%), in [6] (Sample Concentration 0.02%), in data set [6] (Sample Concentration 0.04%), in data set [6] (Sample Concentration 0.08%) and in data set [6] (Sample Concentration 0.16%) was “Growth” each time. Moreover, the Growth/no growth entry was “Growth” in [6] (Sample Concentration 0.32%), “No” in data set [6] (Sample Concentration 0.63%), “No” in data set [6] (Sample Concentration 1.25%) and “No” in data set [6] (Sample Concentration 2.5%).

As for `CCCCCCCCCCCCOC(=O)C(C)NCCO.Cl` (stereo not drawn) [Nex-61, Dodecyl 2-((2-hydroxyethyl)amino)propanoate hydrochloride], the MIC stood at 50 µg/mL in [1] (setting [9]); 50 µg/mL in data set [1] (setting [10]); 50 µg/mL in data set [1] (setting [11]); 50 µg/mL in [8] (setting [12]); 50 µg/mL in [8] (setting [13]); 25 µg/mL in data set [8] (setting [14]). The “Viable counts” value came to 5.30 Log10 CFU/mL in [7] (0.5 min), 5.16 Log10 CFU/mL in data set [7] (1 min), 5.11 Log10 CFU/mL in data set [7] (5 min) and 5.36 Log10 CFU/mL in data set [7] (time 0). In “pH (Table 1)”, the pH was found to be 1.50.

In the case of `CCCCCCCCCCCCOC(=O)C(C)NC(C)C.Cl` (stereo not drawn) [Nex-60, Dodecyl 2-(isopropylamino)propanoate hydrochloride], the MIC is 1560 µg/mL in [1] (setting [9]); 1560 µg/mL in data set [1] (setting [10]); 1560 µg/mL in data set [1] (setting [11]); more than 12500 µg/mL in data set [8] (setting [12]); more than 12500 µg/mL in data set [8] (setting [13]); more than 12500 µg/mL in data set [8] (setting [14]). Moreover, the pH in “pH (Table 1)” was determined as 2.04.

For the molecule `CCCCCCCCCCCCOC(=O)C(C)NCCN(CC)CC.Cl` (stereo not drawn) [Nex-62, Dodecyl 2-((2-(diethylamino)ethyl)amino)propanoate dihydrochloride], the MIC was 25 µg/mL in [1] (setting [9]); 25 µg/mL in [1] (setting [10]); 25 µg/mL in data set [1] (setting [11]); 12.5 µg/mL in [8] (setting [12]); 12.5 µg/mL in data set [8] (setting [13]); 12.5 µg/mL in data set [8] (setting [14]). The “Viable counts” value was determined as 5.32 Log10 CFU/mL in data set [7] (0.5 min), 5.21 Log10 CFU/mL in data set [7] (1 min), 5.02 Log10 CFU/mL in data set [7] (5 min) and 5.27 Log10 CFU/mL in [7] (time 0). The pH in “pH (Table 1)” is 0.73.

These data come from patent publication US20140357713A1, “ANTIMICROBIAL COMPOUNDS AND METHODS OF USE” (NexMed Holdings, Inc., priority 2012, published 2014).
